Assay results reported in patent US12391697B2, “Condensed bi-heterocycles as inhibiting agents for Bruton's tyrosine kinase” (BIOGEN MA INC., priority 2019, dated 2025).
Structures can show the parent of a compound that is named as a salt.

Columns and labels:
BTK = BTK (Homo sapiens (Human), UniProt Q06187); assay: In Vitro BTK Kinase Assay: Btk-PolyGAT-LS Assay; assay type: biochemical; settings: active BTK enzyme 0.25 nM, ATP 10 μM, polyGAT 100 nM, 30 minutes
Procedure, shortened: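 Recombinant BTK (0.25 nM) phosphorylating 100 nM polyGAT at 10 μM ATP in Tris-HCl pH 7.5 buffer with MgCl2, DTT, Triton X-100 and casein, 30 min, then EDTA stop.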

[1] = system: CD69 expression on CD19+ B cells in whole blood; assay: In Vitro Whole Blood CD69 Assay; assay type: cell-based, Human; settings: Homo sapiens, B-cell, human heparinized whole blood, anti-human IgD stimulation, percentage of CD19+ B cells expressing CD69; read-out: IC50
Experimental: In Vitro Whole Blood CD69 Assay
Human heparinized venous blood from health donors was aliquoted into 96-well plate and “spiked” with serial dilutions of formula I compounds in DMSO or with DMSO without drug. The final concentration of DMSO in all wells was 0.1%. The plate was incubated at 37° C. for 30 min. Drug-containing samples were stimulated with 0.1 μg/mL mouse anti-human IgD-dextran (1A62) or 20 μg/mL polyclonal rabbit F(ab′)2 anti-human IgD. Phosphate-buffered saline (PBS) was added to the negative control unstimulated sample and the plates were incubated overnight (18 to 22 hours) at 37° C. Cells were stained with fluorochrome-conjugated anti-CD19 and anti-CD69 antibodies. Lyse/fix solution was used to remove red blood cells by hypotonic lysis and to fix the remaining cells, which were then analyzed by flow cytometry. CD19+ B cells were gated and analyzed for CD69 expression. The percentage of B cells expressing CD69 was plotted versus the log 10 of the concentration of the drug and the best-fit curves (variable Hill slope) were generated to obtain the IC50 value.

Chain of BTK (Q06187 whole entry): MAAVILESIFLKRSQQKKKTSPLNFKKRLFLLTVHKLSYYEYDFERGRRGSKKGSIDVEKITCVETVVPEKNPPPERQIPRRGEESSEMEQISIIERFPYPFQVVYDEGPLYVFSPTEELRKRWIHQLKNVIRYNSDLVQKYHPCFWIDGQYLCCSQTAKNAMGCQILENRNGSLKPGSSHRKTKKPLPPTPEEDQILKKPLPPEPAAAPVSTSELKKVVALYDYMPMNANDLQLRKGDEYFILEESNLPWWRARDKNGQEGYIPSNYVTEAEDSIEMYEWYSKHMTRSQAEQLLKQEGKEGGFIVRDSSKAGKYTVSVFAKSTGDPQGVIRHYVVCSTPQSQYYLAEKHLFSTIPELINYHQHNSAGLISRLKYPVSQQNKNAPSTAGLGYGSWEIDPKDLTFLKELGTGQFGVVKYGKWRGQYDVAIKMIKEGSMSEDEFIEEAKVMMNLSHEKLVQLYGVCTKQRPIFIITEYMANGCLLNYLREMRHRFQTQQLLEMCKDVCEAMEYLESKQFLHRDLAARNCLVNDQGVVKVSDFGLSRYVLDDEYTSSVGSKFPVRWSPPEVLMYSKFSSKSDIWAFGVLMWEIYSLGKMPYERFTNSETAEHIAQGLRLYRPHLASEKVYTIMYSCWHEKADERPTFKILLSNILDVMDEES

CC(C)(C)c1nc(C(=O)NCc2ccc(-c3ncnn4cc(N5CCOCC5)cc34)cc2C(F)(F)F)no1 [Example 34, 5-(tert-butyl)-N-(4-(6-morpholinopyrrolo[2,1-f][1,2,4]triazin-4-yl)-2-(trifluoromethyl)benzyl)-1,2,4-oxadiazole-3-carboxamide hydrochloride]
IC50 (BTK): ≤ 1 nM
IC50 [1]: 100 to 1000 nM

Cc1cc(-c2ncnn3cc(N4C[C@@H](C)O[C@@H](C)C4)cc23)ccc1CNC(=O)c1noc(C(C)(C)C)n1 [Example 39, 5-(tert-butyl)-N-(4-(6-((2,6-syn)-2,6-dimethylmorpholino)pyrrolo[2,1-f][1,2,4]triazin-4-yl)-2-methylbenzyl)-1,2,4-oxadiazole-3-carboxamide]
IC50 (BTK): ≤ 1 nM
IC50 [1]: 100 to 1000 nM

Cc1cc(-c2ncnn3cc(N4CCN(C)CC4)cc23)ccc1CNC(=O)c1noc(C(C)(C)C)n1 [Example 4, 5-(tert-butyl)-N-(2-methyl-4-(6-(4-methylpiperazin-1-yl)pyrrolo[2,1-f][1,2,4]triazin-4-yl)benzyl)-1,2,4-oxadiazole-3-carboxamide trifluoroacetate]
IC50 (BTK): ≤ 1 nM
IC50 [1]: < 100 nM

Cc1cc(-c2ncnn3cc(N4CCN(C)[C@@H](C)C4)cc23)ccc1CNC(=O)c1nc(C(C)(C)C)no1 (single isomer, unassigned) [Example 28]
IC50 (BTK): ≤ 1 nM
IC50 [1]: 100 to 1000 nM

Cc1cc(-c2ncnn3cc(N4CCOCC4)cc23)ccc1CNC(=O)c1noc(C(C)(C)C)n1 [Example 5, 5-(tert-butyl)-N-(2-methyl-4-(6-morpholinopyrrolo[2,1-f][1,2,4]triazin-4-yl)benzyl)-1,2,4-oxadiazole-3-carboxamide trifluoroacetate]
IC50 (BTK): ≤ 1 nM
IC50 [1]: 100 to 1000 nM
